Experimental data taken from patent US20230145835A1, “Modulators of Alpha-4-beta-7 Integrin and MAdCAM” (48HD Biopharma Inc., priority 2021, published 2023).
Numbered stars: 1 amine (or outer) side, 2 acyl side, 3 side chain; on linkers, the order of the positions; unused ones are H or OH. Bridge positions count the residues as written; N and C are the ends. Peptide text beside a SMILES is read from it. X3 = O=C(/C=N/OCCCCCCOc1cc(C[*:2])cc(C[*:3])c1)[*:1]; X1 = O=C(C=NOCCCCCCOc1cc(C[*:2])cc(C[*:3])c1)[*:1]; X2 = O=C(C=NOCc1cc(C[*:2])cc(C[*:3])c1)[*:1]

Assays:
in vitro = details: simulated gi fluid
Protocol: Studies were carried out in simulated intestinal fluid (SIF) to evaluate the intestinal stability of the peptide molecules of the peptides of the instant disclosure. A Fasted State Simulated Intestinal Fluid (FaSSIF) reagent was prepared according to methods known in the art (including addition of the enzyme pancreatin), to which stock peptide solutions were added, incubated, quenched, and analyzed using LCMS/MS.
Percent remaining at each time point was calculated based on the peak area response ratio of test to compound to internal standard. Half-lives were calculated by fitting to a first-order exponential decay equation using GraphPad.

rh-integrin α4β7/LPAM-1 [1] = molecular target: T1, rh-integrin α4β7/LPAM-1 (Homo sapiens, UniProt P13612+P26010); assay: Competition Binding Assay (competition ELISA, Example 1)
T1 sequence (P13612 34-977 limits assumed): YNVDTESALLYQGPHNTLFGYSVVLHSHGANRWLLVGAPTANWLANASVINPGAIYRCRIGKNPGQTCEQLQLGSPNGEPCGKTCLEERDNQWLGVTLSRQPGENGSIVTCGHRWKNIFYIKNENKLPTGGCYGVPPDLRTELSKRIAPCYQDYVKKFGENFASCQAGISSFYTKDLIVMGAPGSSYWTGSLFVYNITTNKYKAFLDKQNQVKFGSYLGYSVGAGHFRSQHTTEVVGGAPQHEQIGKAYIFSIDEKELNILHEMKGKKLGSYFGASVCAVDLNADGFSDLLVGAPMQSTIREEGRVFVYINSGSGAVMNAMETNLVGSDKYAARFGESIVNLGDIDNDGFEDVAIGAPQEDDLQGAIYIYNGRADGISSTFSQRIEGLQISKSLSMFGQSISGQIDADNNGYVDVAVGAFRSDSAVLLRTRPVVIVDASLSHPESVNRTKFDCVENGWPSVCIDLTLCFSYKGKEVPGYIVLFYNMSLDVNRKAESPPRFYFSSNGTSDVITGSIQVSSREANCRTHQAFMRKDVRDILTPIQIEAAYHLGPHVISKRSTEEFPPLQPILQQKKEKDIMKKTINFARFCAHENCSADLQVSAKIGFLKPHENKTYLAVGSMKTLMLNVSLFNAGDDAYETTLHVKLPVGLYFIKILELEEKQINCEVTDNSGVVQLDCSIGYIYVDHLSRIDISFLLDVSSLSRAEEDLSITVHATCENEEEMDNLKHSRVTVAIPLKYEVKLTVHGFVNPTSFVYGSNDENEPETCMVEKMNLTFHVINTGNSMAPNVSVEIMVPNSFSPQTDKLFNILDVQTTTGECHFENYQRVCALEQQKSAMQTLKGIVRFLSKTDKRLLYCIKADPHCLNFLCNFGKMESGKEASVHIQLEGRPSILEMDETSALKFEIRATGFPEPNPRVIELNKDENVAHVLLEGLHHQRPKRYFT
T1 sequence (P26010 20-723 limits assumed): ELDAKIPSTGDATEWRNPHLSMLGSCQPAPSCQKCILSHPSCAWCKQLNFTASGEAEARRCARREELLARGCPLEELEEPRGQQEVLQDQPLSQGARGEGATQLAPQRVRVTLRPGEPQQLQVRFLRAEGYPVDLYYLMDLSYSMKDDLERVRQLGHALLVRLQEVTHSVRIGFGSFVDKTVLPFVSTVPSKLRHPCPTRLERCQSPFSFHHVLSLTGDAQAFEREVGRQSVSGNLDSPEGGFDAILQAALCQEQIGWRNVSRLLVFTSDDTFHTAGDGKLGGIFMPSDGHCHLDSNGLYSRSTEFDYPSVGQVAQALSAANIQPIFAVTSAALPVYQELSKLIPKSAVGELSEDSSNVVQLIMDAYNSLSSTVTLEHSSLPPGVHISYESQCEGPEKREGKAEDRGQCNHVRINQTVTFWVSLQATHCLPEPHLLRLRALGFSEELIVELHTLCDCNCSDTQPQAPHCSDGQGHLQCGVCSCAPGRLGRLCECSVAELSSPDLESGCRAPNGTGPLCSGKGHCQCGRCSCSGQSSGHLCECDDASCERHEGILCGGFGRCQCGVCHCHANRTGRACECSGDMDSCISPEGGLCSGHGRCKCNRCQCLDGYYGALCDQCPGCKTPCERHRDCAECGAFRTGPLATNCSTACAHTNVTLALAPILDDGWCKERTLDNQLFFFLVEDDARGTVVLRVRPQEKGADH

rh-integrin α4β7/LPAM-1 [2] = molecular target: T1, rh-integrin α4β7/LPAM-1; assay: α4β7-MadCAM Competition ELISA (Example 4); assay type: binding; details: IC50, competition ELISA, 4 μg/mL α4β7 coated, MAdCAM and peptide mixture, 28° C.
Protocol: After washing with wash buffer, 200 μL assay buffer was added to each well and incubated for one hour at 28° C. After another wash with wash buffer, 100 μL of a MAdCAM and peptide mixture in assay buffer was added to each well and incubated for one hour at 28° C., followed by washing with wash buffer.

Structure (SMILES) | half-life (in vitro) | IC50 (rh-integrin α4β7/LPAM-1 [1]) | IC50 (rh-integrin α4β7/LPAM-1 [2])
C[C@@H](O)[C@@H]1NC(=O)[C@H](CC(=O)O)NC(=O)[C@@H]2CCCN2C(=O)[C@H](Cc2ccc(O)cc2)NC(=O)[C@@H](NC(=O)[C@H](CC(=O)O)NC(=O)[C@@H](N)CO)CSSC[C@@H](C(N)=O)NC(=O)[C@H](Cc2c[nH]cn2)NC(=O)[C@H](Cc2ccc(O)cc2)NC1=O [SEQ ID NO. 14] (H-SDCYPDTYHC-NH2; disulfide 3-10) | 1.32 h |  | 
CC(C)C[C@@H]1NC(=O)[C@@H]2CCCN2C(=O)[C@H](Cc2c[nH]c3ccccc23)NC(=O)[C@@H]2CCCN2C(=O)[C@@H]2CSCc3cc(cc(c3)OCCCCCCON=CC(=O)N[C@@H](CCC(=O)O)C(=O)N2)CSC[C@@H](C(=O)O)NC(=O)[C@H](CCC(N)=O)NC(=O)[C@@H]2CCCN2C1=O [SEQ ID NO. 15] (ECPWPLPQC-OH; linker N-2-9 via X1) | 1.07 h |  | 
N=C(N)NCCC[C@@H]1NC(=O)CNC(=O)[C@H](Cc2ccc(O)cc2)NC(=O)[C@H](Cc2c[nH]c3ccccc23)NC(=O)[C@H](Cc2c[nH]cn2)NC(=O)[C@@H]2CSCc3cc(cc(c3)OCCCCCCON=CC(=O)N[C@@H](CCC(N)=O)C(=O)N2)CSC[C@@H](C(=O)O)NC(=O)[C@H](CO)NC1=O [SEQ ID NO. 19] (QCHWYGRSC-OH; linker N-2-9 via X1) | > 8 h |  | 
CC[C@H](C)[C@@H]1NC(=O)[C@H](CC(=O)O)NC(=O)[C@H](CCSC)NC(=O)[C@@H]2CCCN2C(=O)[C@@H]2CSCc3cc(cc(c3)OCCCCCCO/N=C/C(=O)N[C@@H](CCC(N)=O)C(=O)N2)CSC[C@@H](C(N)=O)NC(=O)[C@H]([C@@H](C)O)NC(=O)[C@@H]2CCCN2C1=O [SEQ ID NO: 23] (QCPMDIPTC-NH2; linker N-2-9 via X3; C-terminus assumed) |  | 1.32 µM | 
CC(C)C[C@@H]1NC(=O)[C@H]([C@@H](C)O)NC(=O)[C@H](CC(=O)O)NC(=O)[C@H](CO)NC(=O)[C@H](CCCNC(=N)N)NC(=O)[C@@H]2CSCc3cc(cc(c3)OCCCCCCO/N=C/C(=O)N[C@@H](C)C(=O)N2)CSC[C@@H](C(N)=O)NC1=O [SEQ ID NO: 25] (ACRSDTLC-NH2; linker N-2-8 via X3; C-terminus assumed) |  | 79.8 µM | 
CC(C)C[C@@H]1NC(=O)[C@H]([C@@H](C)O)NC(=O)[C@H](CC(=O)O)NC(=O)[C@H](CO)NC(=O)[C@H](CCCNC(=N)N)NC(=O)[C@@H]2CSCc3cc(cc(c3)CSC[C@@H](C(=O)O)NC1=O)CON=CC(=O)N[C@@H](C)C(=O)N2 [SEQ ID NO: 70] (ACRSDTLC-OH; linker N-2-8 via X2) |  | 111 µM | 111 µM

Now from value to compound, other results behind:

half-life (in vitro) | Structure (SMILES) | IC50 (rh-integrin α4β7/LPAM-1 [1]) | IC50 (rh-integrin α4β7/LPAM-1 [2])
3.45 h | C[C@@H](O)[C@@H]1NC(=O)[C@H](CC(=O)O)NC(=O)[C@@H]2CCCN2C(=O)[C@H](Cc2ccc(O)cc2)NC(=O)[C@@H]2CSCc3cc(cc(c3)OCCCCCCON=CC(=O)N[C@@H](CC(=O)O)C(=O)N2)CSC[C@@H](C(=O)O)NC(=O)[C@H](Cc2c[nH]cn2)NC(=O)[C@H](Cc2ccc(O)cc2)NC1=O [SEQ ID NO. 16] (DCYPDTYHC-OH; linker N-2-9 via X1) |  | 
1.36 h | CC(C)C[C@@H]1NC(=O)[C@@H]2CSCc3cc(cc(c3)OCCCCCCON=CC(=O)N[C@@H](CCCCN)C(=O)N2)CSC[C@@H](C(=O)O)NC(=O)[C@H]([C@@H](C)O)NC(=O)[C@H](CCC(N)=O)NC(=O)[C@H](CCC(=O)O)NC(=O)[C@H](Cc2c[nH]c3ccccc23)NC(=O)CNC1=O [SEQ ID NO. 20] (KCLGWEQTC-OH; linker N-2-9 via X1) |  | 
0.328 h | CSCC[C@@H]1NC(=O)[C@H](CCCNC(=N)N)NC(=O)CNC(=O)[C@H](Cc2ccc(O)cc2)NC(=O)[C@H](Cc2c[nH]c3ccccc23)NC(=O)[C@H](CCC(N)=O)NC(=O)[C@@H]2CSCc3cc(cc(c3)OCCCCCCON=CC(=O)N[C@@H](C)C(=O)N2)CSC[C@@H](C(=O)O)NC1=O [SEQ ID NO. 21] (ACQWYGRMC-OH; linker N-2-9 via X1) |  | 
1.2 h | CC(C)C[C@@H]1NC(=O)[C@@H]2CSCc3cc(cc(c3)OCCCCCCO/N=C/C(=O)N[C@@H](Cc3ccccc3)C(=O)N2)CSC[C@@H](C(N)=O)NC(=O)[C@H](CO)NC(=O)[C@H](C)NC(=O)[C@H](CCC(=O)O)NC(=O)[C@H](Cc2ccc(O)cc2)NC(=O)CNC1=O [SEQ ID NO: 22] (FCLGYEASC-NH2; linker N-2-9 via X3) |  | 
